Results published in patent US20230085307A1, “PYRIDAZINONE COMPOUND AND HERBICIDE” (NISSAN CHEMICAL CORPORATION, priority 2019, published 2023).

Key:
Chinese sprangletop = test: Test Example 3: herbicidal effect by foliage application, Wagner pot (Table 18, symbol D); type: in vivo, chinese sprangletop (Leptochloa chinensis)
How it was run: (§1)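 Plants were sown in alluvial soil held under 0.1–0.5 cm standing water and grown 14 days in a greenhouse at 25–30 °C. An emulsifiable formulation, water-diluted to the set dose, was then sprayed onto the foliage, and effects were scored three weeks later using previously defined criteria.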

barnyard grass [1] = test: Test Example 5: herbicidal effect by foliage application, plastic box (Table 20, symbol H); type: in vivo, barnyard grass (Echinochloa crus-galli); conditions: foliage application, three weeks after application
How it was run: (§2)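 Plants sown in sterilized diluvial soil and grown 14 days in a greenhouse at 25° C to 30° C, then sprayed on the foliage with the compound's emulsion diluted in water to a predetermined herbicide amount. Injury to weeds and crops scored three weeks after application on a visual rating scale.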

southern crabgrass [2] = test: Test Example 5: herbicidal effect by foliage application, plastic box (Table 20, symbol F); type: in vivo, southern crabgrass (Digitaria ciliaris); conditions: foliage application, three weeks after application
How it was run: as §2

wild oat [3] = test: Test Example 4: herbicidal effect by soil treatment (Table 19, symbol I); type: in vivo, wild oat (Avena fatua)
How it was run: (§3)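 Three weeks of greenhouse growth at 25° C. to 30° C. followed a uniform surface spray of water-diluted emulsion at a predetermined herbicide amount. Seeds had been sown beforehand under about 1.5 cm of sterilized diluvial soil. Grading followed criteria set out in an earlier test.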

wild oat [4] = test: Test Example 5: herbicidal effect by foliage application, plastic box (Table 20, symbol I); type: in vivo, wild oat (Avena fatua); conditions: foliage application, three weeks after application
How it was run: as §2

redroot pigweed [5] = test: Test Example 5: herbicidal effect by foliage application, plastic box (Table 20, symbol N); type: in vivo, redroot pigweed (Amaranthus retroflexus); conditions: foliage application, three weeks after application
How it was run: as §2

windgrass [6] = test: Test Example 5: herbicidal effect by foliage application, plastic box (Table 20, symbol L); type: in vivo, windgrass (Apera spica-venti); conditions: foliage application, AAH 320 g/ha, three weeks after application
How it was run: as §2

chickweed [7] = test: Test Example 4: herbicidal effect by soil treatment (Table 19, symbol P); type: in vivo, common chickweed (Stellaria media)
How it was run: as §3

Italian ryegrass [8] = test: Test Example 4: herbicidal effect by soil treatment (Table 19, symbol K); type: in vivo, Italian ryegrass (Lolium multiflorum)
How it was run: as §3

redroot pigweed [9] = test: Test Example 4: herbicidal effect by soil treatment (Table 19, symbol N); type: in vivo, redroot pigweed (Amaranthus retroflexus)
How it was run: as §3

persian speedwell [10] = test: Test Example 5: herbicidal effect by foliage application, plastic box (Table 20, symbol R); type: in vivo, Persian speedwell (Veronica persica); conditions: foliage application, three weeks after application
How it was run: as §2

late watergrass = test: Test Example 1: herbicidal activity, application before weed generation under submerged conditions (Table 16, symbol A); type: in vivo, late watergrass (Echinochloa oryzicola)
How it was run: (§4)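 Alluvial soil was flooded to 4 cm depth, weed seeds were sown mixed and 2.5-leaf rice seedlings were transplanted. On sowing day, the compound's emulsion, diluted in water to a set dose, was applied to the water surface. Plants grew at 25–30 °C and were scored 0–5 after three weeks.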

southern crabgrass [11] = test: Test Example 4: herbicidal effect by soil treatment (Table 19, symbol F); type: in vivo, southern crabgrass (Digitaria ciliaris)
How it was run: as §3

windgrass [12] = test: Test Example 4: herbicidal effect by soil treatment (Table 19, symbol L); type: in vivo, windgrass (Apera spica-venti)
How it was run: as §3

velvetleaf [13] = test: Test Example 5: herbicidal effect by foliage application, plastic box (Table 20, symbol M); type: in vivo, velvetleaf (Abutilon theophrasti); conditions: foliage application, three weeks after application
How it was run: as §2

barnyard grass [14] = test: Test Example 3: herbicidal effect by foliage application, Wagner pot (Table 18, symbol H); type: in vivo, barnyard grass (Echinochloa crus-galli)
How it was run: as §1

green foxtail [15] = test: Test Example 4: herbicidal effect by soil treatment (Table 19, symbol G); type: in vivo, green foxtail (Setaria viridis)
How it was run: as §3

Japanese bulrush = test: Test Example 1: herbicidal activity, application before weed generation under submerged conditions (Table 16, symbol B); type: in vivo, Japanese bulrush (Schoenoplectus juncoides)
How it was run: as §4

lambsquarters [16] = test: Test Example 5: herbicidal effect by foliage application, plastic box (Table 20, symbol O); type: in vivo, lambsquarters (Chenopodium album); conditions: foliage application, three weeks after application
How it was run: as §2

persian speedwell [17] = test: Test Example 4: herbicidal effect by soil treatment (Table 19, symbol R); type: in vivo, Persian speedwell (Veronica persica)
How it was run: as §3

green foxtail [18] = test: Test Example 5: herbicidal effect by foliage application, plastic box (Table 20, symbol G); type: in vivo, green foxtail (Setaria viridis); conditions: foliage application, three weeks after application
How it was run: as §2

blackgrass [19] = test: Test Example 5: herbicidal effect by foliage application, plastic box (Table 20, symbol J); type: in vivo, blackgrass (Alopecurus myosuroides); conditions: foliage application, three weeks after application
How it was run: as §2

blackgrass [20] = test: Test Example 4: herbicidal effect by soil treatment (Table 19, symbol J); type: in vivo, blackgrass (Alopecurus myosuroides)
How it was run: as §3

oval-leafed pondweed = test: Test Example 1: herbicidal activity, application before weed generation under submerged conditions (Table 16, symbol C); type: in vivo, oval-leafed pondweed (Monochoria vaginalis)
How it was run: as §4

chickweed [21] = test: Test Example 5: herbicidal effect by foliage application, plastic box (Table 20, symbol P); type: in vivo, common chickweed (Stellaria media); conditions: foliage application, three weeks after application
How it was run: as §2

lambsquarters [22] = test: Test Example 4: herbicidal effect by soil treatment (Table 19, symbol O); type: in vivo, lambsquarters (Chenopodium album)
How it was run: as §3

barnyard grass [23] = test: Test Example 4: herbicidal effect by soil treatment (Table 19, symbol H); type: in vivo, barnyard grass (Echinochloa crus-galli)
How it was run: as §3

velvetleaf [24] = test: Test Example 4: herbicidal effect by soil treatment (Table 19, symbol M); type: in vivo, velvetleaf (Abutilon theophrasti)
How it was run: as §3

Italian ryegrass [25] = test: Test Example 5: herbicidal effect by foliage application, plastic box (Table 20, symbol K); type: in vivo, Italian ryegrass (Lolium multiflorum); conditions: foliage application, three weeks after application
How it was run: as §2

rice flat sedge = test: Test Example 3: herbicidal effect by foliage application, Wagner pot (Table 18, symbol E); type: in vivo, rice flat sedge (Cyperus iria); conditions: amount of applied herbicide 320 g/ha
How it was run: as §1

[26] = amount of applied herbicide 320 g/ha

CC(=O)COc1ccc(-c2sc3ccccc3c2-c2c(O)c(C)nn(C)c2=O)cc1 [1-143]
herbicidal effect on D (Chinese sprangletop), rating 0-5 (Chinese sprangletop; 320 g/ha): 0 (Herbicidal rate of 5% or less (almost no effect)) | H: barnyard grass, herbicidal effect (barnyard grass [1]; AAH 320 g/ha): 4 (Herbicidal rate of 70% or more and less than 90%) | F: southern crabgrass, herbicidal effect (southern crabgrass [2]; AAH 320 g/ha): 3 (Herbicidal rate of 40% or more and less than 70%) | I: wild oat, herbicidal effect rating (wild oat [3]; AAH 320 g/ha): 0 (Herbicidal rate of 5% or less (almost no effect)) | I: wild oat, herbicidal effect (wild oat [4]; AAH 320 g/ha): 0 (Herbicidal rate of 5% or less (almost no effect)) | N: redroot pigweed, herbicidal effect (redroot pigweed [5]; AAH 320 g/ha): 4 (Herbicidal rate of 70% or more and less than 90%) | L: windgrass, herbicidal effect (windgrass [6]): 4 (Herbicidal rate of 70% or more and less than 90%) | P: chickweed, herbicidal effect rating (chickweed [7]; AAH 320 g/ha): 0 (Herbicidal rate of 5% or less (almost no effect)) | K: Italian ryegrass, herbicidal effect rating (Italian ryegrass [8]; AAH 320 g/ha): 0 (Herbicidal rate of 5% or less (almost no effect)) | N: redroot pigweed, herbicidal effect rating (redroot pigweed [9]; AAH 320 g/ha): 4 (Herbicidal rate of 70% or more and less than 90%) | R: persian speedwell, herbicidal effect (persian speedwell [10]; AAH 320 g/ha): 5 (Herbicidal rate of 90% or more (almost completely withered)) | Herbicidal effect on A: late watergrass (grade 0-5) (late watergrass; 320 g/ha applied herbicide): 3 (Herbicidal rate of 40% or more and less than 70%) | F: southern crabgrass, herbicidal effect rating (southern crabgrass [11]; AAH 320 g/ha): 3 (Herbicidal rate of 40% or more and less than 70%) | L: windgrass, herbicidal effect rating (windgrass [12]; AAH 320 g/ha): 0 (Herbicidal rate of 5% or less (almost no effect)) | M: velvetleaf, herbicidal effect (velvetleaf [13]; AAH 320 g/ha): 5 (Herbicidal rate of 90% or more (almost completely withered)) | herbicidal effect on H (barnyard grass), rating 0-5 (barnyard grass [14]; 320 g/ha): 5 (Herbicidal rate of 90% or more (almost completely withered)) | G: green foxtail, herbicidal effect rating (green foxtail [15]; AAH 320 g/ha): 4 (Herbicidal rate of 70% or more and less than 90%) | Herbicidal effect on B: Japanese bulrush (grade 0-5) (Japanese bulrush; 320 g/ha applied herbicide): 0 (Herbicidal rate of 5% or less (almost no effect)) | O: lambsquarters, herbicidal effect (lambsquarters [16]; AAH 320 g/ha): 4 (Herbicidal rate of 70% or more and less than 90%) | R: persian speedwell, herbicidal effect rating (persian speedwell [17]; AAH 320 g/ha): 3 (Herbicidal rate of 40% or more and less than 70%) | G: green foxtail, herbicidal effect (green foxtail [18]; AAH 320 g/ha): 5 (Herbicidal rate of 90% or more (almost completely withered)) | J: blackgrass, herbicidal effect (blackgrass [19]; AAH 320 g/ha): 0 (Herbicidal rate of 5% or less (almost no effect)) | J: blackgrass, herbicidal effect rating (blackgrass [20]; AAH 320 g/ha): 0 (Herbicidal rate of 5% or less (almost no effect)) | Herbicidal effect on C: oval-leafed pondweed (grade 0-5) (oval-leafed pondweed; 320 g/ha applied herbicide): 0 (Herbicidal rate of 5% or less (almost no effect)) | P: chickweed, herbicidal effect (chickweed [21]; AAH 320 g/ha): 5 (Herbicidal rate of 90% or more (almost completely withered)) | O: lambsquarters, herbicidal effect rating (lambsquarters [22]; AAH 320 g/ha): 5 (Herbicidal rate of 90% or more (almost completely withered)) | H: barnyard grass, herbicidal effect rating (barnyard grass [23]; AAH 320 g/ha): 4 (Herbicidal rate of 70% or more and less than 90%) | M: velvetleaf, herbicidal effect rating (velvetleaf [24]; AAH 320 g/ha): 4 (Herbicidal rate of 70% or more and less than 90%) | K: Italian ryegrass, herbicidal effect (Italian ryegrass [25]; AAH 320 g/ha): 4 (Herbicidal rate of 70% or more and less than 90%)

COCCn1nc(C)c(O)c(-c2c(-c3ccc(F)cc3)sc3ccc(F)cc23)c1=O [2-429]
herbicidal effect on D: Chinese sprangletop (Chinese sprangletop; [26]): 0 (Herbicidal rate of 5% or less (almost no effect)) | H: barnyard grass, herbicidal effect grade (barnyard grass [1]; 320 g/ha): 0 (Herbicidal rate of 5% or less (almost no effect)) | F: southern crabgrass, herbicidal effect grade (southern crabgrass [2]; 320 g/ha): 2 (Herbicidal rate of 20% or more and less than 40%) | herbicidal effect, I: wild oat (wild oat [3]; [26]): 0 (Herbicidal rate of 5% or less (almost no effect)) | I: wild oat, herbicidal effect grade (wild oat [4]; 320 g/ha): 0 (Herbicidal rate of 5% or less (almost no effect)) | N: redroot pigweed, herbicidal effect grade (redroot pigweed [5]; 320 g/ha): 3 (Herbicidal rate of 40% or more and less than 70%) | herbicidal effect, P: chickweed (chickweed [7]; [26]): 0 (Herbicidal rate of 5% or less (almost no effect)) | herbicidal effect, K: Italian ryegrass (Italian ryegrass [8]; [26]): 0 (Herbicidal rate of 5% or less (almost no effect)) | herbicidal effect, N: redroot pigweed (redroot pigweed [9]; [26]): 3 (Herbicidal rate of 40% or more and less than 70%) | R: persian speedwell, herbicidal effect grade (persian speedwell [10]; 320 g/ha): 4 (Herbicidal rate of 70% or more and less than 90%) | Herbicidal effect, A: late watergrass (late watergrass; [26]): 3 (Herbicidal rate of 40% or more and less than 70%) | herbicidal effect, F: southern crabgrass (southern crabgrass [11]; [26]): 0 (Herbicidal rate of 5% or less (almost no effect)) | herbicidal effect, L: windgrass (windgrass [12]; [26]): 0 (Herbicidal rate of 5% or less (almost no effect)) | M: velvetleaf, herbicidal effect grade (velvetleaf [13]; 320 g/ha): 2 (Herbicidal rate of 20% or more and less than 40%) | herbicidal effect on H: barnyard grass (barnyard grass [14]; [26]): 3 (Herbicidal rate of 40% or more and less than 70%) | herbicidal effect, G: green foxtail (green foxtail [15]; [26]): 0 (Herbicidal rate of 5% or less (almost no effect)) | Herbicidal effect, B: Japanese bulrush (Japanese bulrush; [26]): 2 (Herbicidal rate of 20% or more and less than 40%) | O: lambsquarters, herbicidal effect grade (lambsquarters [16]; 320 g/ha): 0 (Herbicidal rate of 5% or less (almost no effect)) | herbicidal effect, R: persian speedwell (persian speedwell [17]; [26]): 0 (Herbicidal rate of 5% or less (almost no effect)) | G: green foxtail, herbicidal effect grade (green foxtail [18]; 320 g/ha): 0 (Herbicidal rate of 5% or less (almost no effect)) | J: blackgrass, herbicidal effect grade (blackgrass [19]; 320 g/ha): 0 (Herbicidal rate of 5% or less (almost no effect)) | herbicidal effect, J: blackgrass (blackgrass [20]; [26]): 0 (Herbicidal rate of 5% or less (almost no effect)) | herbicidal effect on E: rice flat sedge (rice flat sedge): 0 (Herbicidal rate of 5% or less (almost no effect)) | Herbicidal effect, C: oval-leafed pondweed (oval-leafed pondweed; [26]): 3 (Herbicidal rate of 40% or more and less than 70%) | P: chickweed, herbicidal effect grade (chickweed [21]; 320 g/ha): 5 (Herbicidal rate of 90% or more (almost completely withered)) | herbicidal effect, O: lambsquarters (lambsquarters [22]; [26]): 0 (Herbicidal rate of 5% or less (almost no effect)) | herbicidal effect, H: barnyard grass (barnyard grass [23]; [26]): 0 (Herbicidal rate of 5% or less (almost no effect)) | herbicidal effect, M: velvetleaf (velvetleaf [24]; [26]): 1 (Herbicidal rate of 5% or more and less than 20%) | K: Italian ryegrass, herbicidal effect grade (Italian ryegrass [25]; 320 g/ha): 0 (Herbicidal rate of 5% or less (almost no effect))
